{
  "source": "patent US4036696A",
  "about": "“Preparation of antibiotics by fermentation” (priority 1976, dated 1977)",
  "key": {"[1]": {"test_system": "Proteus vulgaris (MB-838)", "experiment": "disc-plate assay using Proteus vulgaris", "assay_type": "cell-based", "settings": "read-out: concentration giving a 25 mm. zone"}, "[2]": {"test_system": "gram-negative and gram-positive organisms", "experiment": "in vivo activity against infections (in words)", "set-up": "species or system mice", "experimental": "Methods: The method employed in this characterization is as follows: Female white Swiss mice, average weight 20-23 grams, were infected intraperitoneally with 3-20 times the number of organisms calculated to be lethal for 50% of the infected control animals (3-20 LD50 doses). At the time of infection and again 6 hours later, therapy was given by the designated route. Controls of the virulence of the culture and the toxicity of the antibiotic for uninfected mice were included in the tests. Seven days after infection the test was considered complete and the amount of the antibiotic (I) that would be required to protect 50% of the infected and treated animals was calculated by the method of Knudsen and Curtis: J. Amer. Stat. Assoc. Vol. 42: page 282 (1947).\nThe method employed in these studies is the same as described above with regard to the in vivo characterization of 810A."}, "cephalosporinases": {"test_system": "cephalosporinases", "experiment": "resistance to cephalosporinases / enzymatic degradation", "assay_type": "biochemical"}},
  "data": [
    {"compound": "COC(=Cc1ccc(OS(=O)(=O)O)cc1)C(=O)OCC1=C(C(=O)O)N2C(=O)[C@](NC(=O)CCC[C@@H](N)C(=O)O)(OC)[C@H]2SC1", "note": "[Ic, 7β-(D-5-amino-5-carboxyvaleramido)-3-(α-methoxy-p-sulfooxycinnamoyloxymethyl)-7-methoxy-3-cephem-4-carboxylic acid]", "values": [
      {"measurement": "IC (25 mm zone)", "setting": "[1]", "result": 88, "unit": "µg/mL"},
      {"measurement": "effectiveness against infections", "setting": "[2]; administered intraperitoneally", "result": "effective against a variety of gram-negative and gram-positive infections"},
      {"measurement": "oral protection against infections", "setting": "[2]; given orally", "result": "protects against infections due to Proteus vulgaris"},
      {"measurement": "resistance to enzymatic degradation compared with cephalosporin C", "setting": "cephalosporinases", "result": "more resistant to enzymatic degradation than cephalosporin C"}
    ]}
  ]
}
